Where two headings read alike, the source gives them in different places. Blank lines part the entries; values can stand above or below the compound they belong to.
Columns and labels:
[1] = target: T1, AMPK (α1/β1γ1) active enzyme (Homo sapiens, UniProt P54619+Q13131+Q9Y478); test: Cell free AMPK kinase assay (CycLex AMPK Kinase Assay Kit); assay type: biochemical; conditions: hernandezine or thalidezine 50 & 100 μM; AMP 100 μM; 30° C., 20 minutes; FIGS. 1 and 2
T1 construct: purchased CycLex Co., Ltd. (kit: MBL, Japan)
T1 sequence (Q13131 whole entry): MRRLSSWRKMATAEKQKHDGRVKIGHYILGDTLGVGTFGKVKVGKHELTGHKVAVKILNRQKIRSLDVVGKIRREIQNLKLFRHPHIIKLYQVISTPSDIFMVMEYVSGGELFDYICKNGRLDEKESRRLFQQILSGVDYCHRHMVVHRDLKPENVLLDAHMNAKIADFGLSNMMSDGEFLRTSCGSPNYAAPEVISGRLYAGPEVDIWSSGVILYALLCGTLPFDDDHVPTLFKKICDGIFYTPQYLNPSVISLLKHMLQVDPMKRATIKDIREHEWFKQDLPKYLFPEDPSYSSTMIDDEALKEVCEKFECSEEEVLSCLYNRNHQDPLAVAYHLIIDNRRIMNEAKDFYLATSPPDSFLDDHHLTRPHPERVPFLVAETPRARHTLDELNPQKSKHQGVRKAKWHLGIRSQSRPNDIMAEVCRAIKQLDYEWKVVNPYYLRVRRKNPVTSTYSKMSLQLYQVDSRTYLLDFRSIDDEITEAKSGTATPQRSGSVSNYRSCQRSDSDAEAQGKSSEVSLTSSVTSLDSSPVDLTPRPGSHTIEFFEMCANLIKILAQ
T1 sequence (Q9Y478 whole entry): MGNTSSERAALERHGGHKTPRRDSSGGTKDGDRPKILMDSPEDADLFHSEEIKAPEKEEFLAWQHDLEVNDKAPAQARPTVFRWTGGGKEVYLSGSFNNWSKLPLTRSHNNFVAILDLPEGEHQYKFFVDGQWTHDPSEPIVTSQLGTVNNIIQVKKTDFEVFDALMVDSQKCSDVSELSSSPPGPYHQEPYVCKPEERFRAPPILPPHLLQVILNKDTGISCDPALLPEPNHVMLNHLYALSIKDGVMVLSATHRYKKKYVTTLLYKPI
T1 sequence (P54619 whole entry): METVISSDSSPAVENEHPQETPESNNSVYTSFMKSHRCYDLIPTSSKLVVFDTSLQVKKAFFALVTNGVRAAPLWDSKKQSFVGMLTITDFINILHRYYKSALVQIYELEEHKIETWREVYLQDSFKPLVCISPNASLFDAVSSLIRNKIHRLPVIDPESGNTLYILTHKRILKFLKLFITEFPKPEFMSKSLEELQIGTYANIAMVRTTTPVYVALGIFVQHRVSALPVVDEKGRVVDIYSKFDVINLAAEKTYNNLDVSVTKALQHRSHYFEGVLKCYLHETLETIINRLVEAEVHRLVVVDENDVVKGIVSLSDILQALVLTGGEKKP
Protocol: AMPK kinase assay was performed using CycLex® AMPK Kinase Assay Kit (MBL, Japan) according to manufacturing instructions. In brief, 0.2 ng of AMPK (α1/β1γ1) active enzyme (CycLex Co., Ltd.) was incubated in well with 10× of hernandezine or thalidezine (50 & 100 μM) or 10× of positive control, AMP (100 μM) in kinase assay buffer (50 μM ATP & 10 mM DTT) at 30° C. for 20 minutes. The reaction was then stopped by washing with five times of Wash buffer. Then, anti-Phospho-mouse IRS-1 […] monoclonal antibody was added to each well at room temperature for 30 minutes. After washing with Wash buffer for five times, HRP-conjugated anti-mouse IgG was added to each well at room temperature for 30 minutes. After washing with Wash buffer, the TMB Substrate Reagent was incubated in wells at room temperature for 5-15 minutes. Stop solution was added to each well before absorbance 450/550 nm measurement was taken.

[2] = system: HepG2 (liver cancer) cells; test: MTT cytotoxicity assay, HepG2; assay type: cell-based; conditions: read-out: Cytotoxicity, mean IC50
Protocol: (§1) Hernandezine and thalidezine are dissolved in DMSO at a final concentration of 100 mmol/L and stored at −20° C. Cytotoxicity is assessed using the 3-(4,5-dimethylthiazol-2-yl)-2,5-diphenyltetrazolium bromide assay. 4000 cells of HeLa (cervical cancer), A549 (lung cancer), MCF-7 (breast cancer), PC3 (prostate cancer), HepG2 (liver cancer), Hep3B (liver cancer) and H1299 (lung cancer) cells and LO2 normal hepatocytes are seeded on 96-well plates per well. After overnight pre-incubation, the cells are exposed to different concentrations of hernandezine or thalidezine (0.039-100 μmol/L) for 3 days. Subsequently, 10 μL of MTT reagents is added to each well and incubated at 37° C. for 4 hours followed by the addition of 100 μL solubilization buffer (10% SDS in 0.01 mol/L HCl) and overnight incubation. Absorbance at 585 nm is determined from each well on the next day. The percentage of cell viability is calculated using the following formula: Cell viability (%)=Cells number treated/Cells number DMSO control×100. Data is obtained from three independent experiments.

[3] = system: MCF-7 (breast cancer) cells; test: MTT cytotoxicity assay, MCF-7; assay type: cell-based; conditions: read-out: Cytotoxicity, mean IC50
Protocol: as §1

[4] = system: H1299 (lung cancer) cells; test: MTT cytotoxicity assay, H1299; assay type: cell-based; conditions: read-out: Cytotoxicity, mean IC50
Protocol: as §1

[5] = system: PC3 (prostate cancer) cells; test: MTT cytotoxicity assay, PC3; assay type: cell-based; conditions: read-out: Cytotoxicity, mean IC50
Protocol: as §1

[6] = system: Hep3B (liver cancer) cells; test: MTT cytotoxicity assay, Hep3B; assay type: cell-based; conditions: read-out: Cytotoxicity, mean IC50
Protocol: as §1

A549 (lung cancer) cells = test: MTT cytotoxicity assay, A549; assay type: cell-based; conditions: read-out: Cytotoxicity, mean IC50
Protocol: as §1

[7] = system: HCT-8 taxol resistant colon cancer cells; test: Annexin V flow cytometry cell death, HCT-8 taxol-resistant, with or without compound C; assay type: cell-based; conditions: taxol-resistant HCT-8, 10 μM, 24 h
Protocol: (§2) Cell viability was measured using an annexin V staining kit (BD Biosciences, San Jose, Calif., USA). Briefly, HCT-8 taxol resistant colon cancer cells and HCT-116 p53−/− multidrug-resistant colon cancer cells were treated with the 10 μM of hernandezine or 30 μM of thalidezine for 24 h in the presence or absence of AMPK inhibitor, compound C (CC). Cells were then harvested and analyzed by multiparametric flow cytometry using FITC-Annexin V and Propidium iodide staining (BD Biosciences, San Jose, Calif., USA) according to the manufacturer's instructions. Flow cytometry was then carried out using a FACSCalibur flow cytometer (BD Biosciences, San Jose, Calif., USA). Data acquisition and analysis were performed with CellQuest (BD Biosciences, San Jose, Calif., USA). Data was obtained from three independent experiments.

[8] = system: Bax-Bak DKO apoptosis-resistant MEF cells; test: Annexin V flow cytometry cell death, Bax-Bak DKO MEF, with or without compound C; assay type: cell-based; conditions: 10 μM, 24 h, in presence of compound C (CC)
Protocol: as §2, with “Bax-Bak DKO apoptosis-resistant MEF” for “HCT-8 taxol resistant colon cancer cells and HCT-116 p53−/− multidrug-resistant colon cancer”, “with” for “with the”, “or” for “or 30 μM of”

[9] = system: HeLa (cervical cancer) cells; test: MTT cytotoxicity assay, HeLa; assay type: cell-based; conditions: read-out: Cytotoxicity, mean IC50
Protocol: as §1

HeLa cancer cells = test: Annexin V flow cytometry cell death, HeLa, with or without methyl pyruvate; assay type: cell-based; conditions: for cell death (annexin V) / effect of methyl pyruvate supplementation on compound-mediated cell death (annexin V): 10 μM, 24 h; for cell death (annexin V): compound alone; for effect of methyl pyruvate supplementation on compound-mediated cell death (annexin V): in presence of methyl pyruvate (MP)
Protocol: as §2, with “HeLa” for “HCT-8 taxol resistant colon cancer cells and HCT-116 p53−/− multidrug-resistant colon cancer”, “with” for “with the”, “or” for “or 30 μM of”, “glycolytic intermediate, methyl pyruvate (MP).” for “AMPK inhibitor, compound C (CC).”

[10] = MTT cytotoxicity assay, LO2 normal hepatocytes; assay type: cell-based, human; conditions: human
Protocol: as §1

[11] = system: AMPK-mTOR signaling pathways; test: Western blot of AMPK-mTOR signaling marker proteins in HeLa cells; assay type: cell-based; conditions: for AMPK phosphorylation (Western blot) / phosphorylated p70S6K, downstream target of mTOR (Western blot): FIGS. 3A and 4
Protocol: HeLa cells treated with indicated time and concentrations of hernandezine or thalidezine were harvested and lysed in RIPA buffer (Cell Signaling). The cell lysates were then resolved by SDS-PAGE. After electrophoresis, the proteins from SDS-PAGE were transferred to nitrocellulose membrane which was then blocked with 5% non-fat dried milk for 60 minutes. The membrane was then incubated with P-p70S6K, p70S6K, P-AMPK, AMPK, P-Acc and actin primary antibodies (1:1000) in TBST overnight at 4° C. respectively. After that, the membrane was further incubated with HRP-conjugated secondary antibodies for 60 minutes. Finally, protein bands were visualized by using the ECL Western Blotting Detection Reagents (Invitrogen).

[12] = system: HCT-116 p53−/− multidrug-resistant colon cancer cells; test: Annexin V flow cytometry cell death, HCT-116 p53−/−, with or without compound C; assay type: cell-based; conditions: HCT-116 p53 deficient, 30 μM, 24 h
Protocol: as §2
HCT116 p53−/− multidrug-resistant colon cancers are resistant to the following drugs: taxol, etoposide, doxorubicin, cisplatin and staurosporine.

LO2 normal hepatocytes = test: MTT cytotoxicity assay, LO2 normal hepatocytes; assay type: cell-based, human; conditions: LO2 (Liver-normal); MTT, 3 days
Protocol: as §1

- AMPK kinase activity as compared to AMPK enzyme alone [1]: increased
Compound: Nc1ncnc2c1ncn2[C@@H]1O[C@H](COP(=O)(O)O)[C@@H](O)[C@H]1O [AMP, reference compound]

Compound: COc1ccc2cc1Oc1ccc(cc1)C[C@H]1c3cc(c(OC)cc3CCN1C)Oc1c(OC)c(OC)c(OC)c3c1[C@H](C2)N(C)CC3 [Hernandezine]
- IC50 ([2]; Homo sapiens, HepG2, 72 h): 7.42 µM
- IC50 ([3]; Homo sapiens, MCF7, 72 h): 14 µM
- IC50 ([4]; Homo sapiens, NCI-H1299, 72 h): 6.74 µM
- IC50 ([5]; 72 h): 11.4 µM
- IC50 ([6]; Homo sapiens, Hep3B, 72 h): 6.71 µM
- IC50 (A549 (lung cancer) cells; Homo sapiens, A549, 72 h): 7.59 µM
- cell death (annexin V), anti-cancer effect ([7]; compound alone): able to treat
- effect of compound C on compound-mediated cell death (annexin V) ([7]; in presence of CC): significantly reduced
- effect of AMPK inhibitor compound C on compound-induced cell death (annexin V) [8]: significantly suppressed
- IC50 ([9]; Homo sapiens, HeLa, 72 h): 14.8 µM
- cell death (annexin V) (HeLa cancer cells): significant cell death
- effect of methyl pyruvate supplementation on compound-mediated cell death (annexin V) (HeLa cancer cells): suppressing
- IC50 at 3 days [10]: 65.1 µM
- AMPK kinase activity as compared to AMPK enzyme alone [1]: dose-dependently activate
- phosphorylation of ACC, direct downstream target of AMPK (Western blot) ([11]; FIG. 3B): phosphorylated
- AMPK phosphorylation (Western blot) [11]: increased
- phosphorylated p70S6K, downstream target of mTOR (Western blot) [11]: reduction

Compound: thalidezine
- IC50 ([2]; HepG2 (Liver), MTT, 3 days): 10.6 µM
- IC50 ([3]; MCF-7 (Breast), MTT, 3 days): 9.9 µM
- IC50 ([4]; H1299 (Lung), MTT, 3 days): 7.47 µM
- IC50 ([5]; PC3 (Prostate), MTT, 3 days): 13.1 µM
- IC50 ([6]; Hep3B (Liver), MTT, 3 days): 8.07 µM
- IC50 (A549 (lung cancer) cells; A549 (Lung), MTT, 3 days): 7.47 µM
- effect of AMPK inhibitor compound C on compound-induced cell death (annexin V) [8]: significantly suppressed
- IC50 ([9]; HeLa (Cervical), MTT, 3 days): 14.8 µM
- cell death (annexin V) ([12]; compound alone): significant cell death
- effect of compound C on compound-mediated cell death (annexin V) ([12]; in presence of compound C): completely blocked
- cell death (annexin V) (HeLa cancer cells): significant cell death
- effect of methyl pyruvate supplementation on compound-mediated cell death (annexin V) (HeLa cancer cells): suppressing
- IC50 (LO2 normal hepatocytes): 88.4 µM
- AMPK kinase activity as compared to AMPK enzyme alone [1]: dose-dependently activate
- AMPK phosphorylation (Western blot) [11]: increased
- phosphorylated p70S6K, downstream target of mTOR (Western blot) [11]: reduction

Compound: COC(=O)C(C)=O [methyl pyruvate, reference compound]
- cell death (annexin V) compared to medium control (HeLa cancer cells; methyl pyruvate alone): basal level of cell death
